One test relates to OVCAR3 tumor. Kind of test: OVCAR3 human ovarian cancer subcutaneous transplant tumor model. Particulars: oral, QD, 28 days, balb/c nude mice. Format: in vivo, mouse. The source says: • I. Experimental objective: evaluation of the pharmacological effects of the reference compounds and the compounds of the present disclosure in the OVCAR3 human ovarian cancer subcutaneous transplant tumor model. • II. Experimental material: experimental female balb/c nude mice, 6-8-week old or 18-20 g, provided by Vital River Laboratory Animal Technology Co., Ltd. • III. Experimental method: Experimental animals were housed within a specific pathogen-free animal barrier facility, and the experiment was started 3 days after the animals were acclimated. The human ovarian cancer OVCAR3 tumor cells were cultured in vitro as monolayers in RPMI 1640 complete medium (supplemented with a final concentration of 20% fetal bovine serum, 1% penicillin-streptomycin dual antibiotics, and 0.01 mg/ml insulin) at 37° C. in an atmosphere containing 5% CO2. The tumor cells were routinely passaged 2-3 times per week, and the cells in the exponential growth phase were collected and counted for tumor cell inoculation. 10×10^6 OVCAR3 tumor cells were resuspended in 0.1 m1 PBS and mixed with 0.1 m1 matrigel and then subcutaneously inoculated into the right flank of each mouse to establish tumors. When the mean tumor volume of the tumor-bearing mice grew to around 100 mm^3, the appropriate tumor-bearing mice were selected for randomization and the groups were set as: blank control groups, reference compound groups, and groups of compounds of the present disclosure. Vehicles were administered orally in the blank control group, and the corresponding compounds were administered orally in the other groups for 28 days. Tumor volumes and animal weights were monitored […], twice weekly. This experiment examined the inhibitory effect of the reference compound and the compound of the present disclosure on the growth of OVCAR3 human ovarian cancer cells by monitoring the size of the tumor volume of each group after administration of the compounds.

Another test relates to HCC1954 cells. Kind of test: HCC1954 cell proliferation (Cell Titer-Glo, 6 days). Format: cell-based. Particulars: KIF18A-sensitive tumor cells. Here is the method: The inhibitory effect on the KIF18A target by the compounds of the present disclosure was evaluated by testing the inhibitory effect on proliferation of HCC1954 and HCC1395 cells by the compounds of the present disclosure.
HCC1954 (ATCC, CRL-2388) and HCC1395 (ATCC, CRL-2324) cells were cultured separately in RPMI-1640 complete medium (Gibco, A1049101) containing 20% fetal bovine serum (Gibco, 10099141C), 100 U penicillin, and 100 μg/mL streptomycin (Gibco, 15140-122). The Promega kit Cell Titer-Glo (Promega: G7572) was used in this method for test. • 1. HCC1954 (KIF18A-sensitive tumor cells) and HCC1395 (KIF18A-insensitive tumor cells) were cultured separately in T75 cell culture flasks (Corning, 430641), and the medium was placed in a 37° C., 5% CO2 incubator. • 2. When the cell density reached 70% to 80% (about 2 to 3 times per week), cells are passaged with trypsin (0.25% EDTA). • 3. The cell culture flask was taken out and the cells were separated by adding 2 mL of trypsin (0.25% EDTA source) for 5 minutes. • 4. Digestion was stopped by adding 8 mL of RPM1-1640 medium and the cell suspension was transferred to a centrifuge tube and centrifuged at 1000 rpm for 5 minutes. • 5. The cells were resuspended with 5 mL of RPMI-1640 medium. Cell density was adjusted to 5×10^3/mL (HCC1954), and 2.5×10^4/mL (HCC1395), respectively. • 6. 40 μL of cell solution was added to the 384-well plate (Corning, 3765). • 7. The 384-well plate was centrifuged at 1000 rpm for 1 minute. • 8. The cells were cultured overnight in a 37° C., 5% CO2 incubator. • 9. The next day, 40 nL of compound solution was added to the 384-well plate using Echo650. The plate was then placed in a 37° C., 5% CO2 incubator for 6 days. • 10. After 6 days, 20 μL of Cell-Titer-Glo (Promega, G7572) reagent was added per well. • 11. Luminescence values were measured using the EnVision Xcite Multilabel Reader (PerkinElmer, 2105-0020).
The percentage of inhibition of cell proliferation by the test compound at each concentration was calculated by comparing with the values of the control group (0.1% DMSO). The IC50 values of the compounds were obtained by concentration-inhibition rate nonlinear regression analysis of the test compounds using GraphPad Prism 9.

The results in this text go back to US20260070887A1 (Shenzhen Zhongge Biological Technology Co., Ltd., priority 2022, published 2026).

Each structure is given as a SMILES string. A value given as a limit tells only on which side of the number the result lay.

For the compound `CC1(C)Cn2c(cc3c(NC(=O)c4ccc(NS(=O)(=O)CCO)cc4N4CCC5(CC4)CC5)cccc32)CO1` [Example 371, N-(3,3-dimethyl-3,4-dihydro-1H-[1,4]oxazino[4,3-a]indol-9-yl)-4-(2-hydroxyethylsulfonamido)-2-(6-azaspiro[2.5]octan-6-yl)benzamide], the “inhibition rate on OVCAR3 tumor growth” value with OVCAR3 tumor (10 mg/kg) was 94%-98%; in the test with OVCAR3 tumor (30 mg/kg), “about 110%”.
In the case of `COc1ccc(NC(=O)c2ccc(NS(=O)(=O)CCO)cc2N2CCC3(CC2)CC3)c2cc3n(c12)CC(C)(C)OC3` [Example 455, 4-((2-hydroxyethyl)sulfonamido)-N-(6-methoxy-3,3-dimethyl-3,4-dihydro-1H-[1,4]oxazinyl[4,3-a]indol-9-yl)-2-(6-azaspiro[2.5]oct-6-yl)benzamide], in the test on OVCAR3 tumor (10 mg/kg), the “inhibition rate on OVCAR3 tumor growth” value is given as 94%-98%.
As for `CNc1cc(NS(=O)(=O)CCO)cc(N2CCC3(CC2)CC3)c1C(=O)Nc1cc(C)nc(N2CCC(F)(F)CC2)n1` [Example 4, N-(2-(4,4-difluoropiperidin-1-yl)-6-methylpyrimidin-4-yl)-4-(2-hydroxyethylsulfonamide)-2-methylamino-6-(6-azaspiro[2.5]octan-6-yl)benzamide], in the test with HCC1954 cells, the IC50 was no more than 10 nM.
For `O=C(Nc1cccc2c1cc1n2CCOC1)c1ccc(NS(=O)(=O)CCO)cc1N1CCC(=C(F)F)CC1` [Example 319, 2-(4-difluoromethylene)piperidin-1-yl-N-(3,4-dihydro-1H-[1,4]oxazino[4,3-a]indol-9-yl)-4-((2-hydroxyethyl)sulfonamide) benzamide], the IC50 in the test on HCC1954 cells lay within 10 to 500 nM.
Regarding `COc1ccc(NC(=O)c2ccc(NS(=O)(=O)CCO)cc2N2CCC(=C(F)F)CC2)c2cc3n(c12)CC(C)(C)OC3` [Example 465, 2-(4-(difluoromethylene)piperidin-1-yl)-4-((2-hydroxyethyl)sulfonamido)-N-(6-methoxy-3,3-dimethyl-3,4-dihydro-1H-[1,4]oxazinyl[4,3-a]indol-9-yl)benzamide], the “inhibition rate on OVCAR3 tumor growth” value with OVCAR3 tumor (10 mg/kg) was 60%-70%.
Turning to `Nc1cc(NS(=O)(=O)CCO)cc(N2CCC3(CC2)CC3)c1C(=O)Nc1cccc(N2CCC(F)(F)CC2)c1` [Example 1, 2-amino-N-(3-(4,4-difluoropiperidin-1-yl)phenyl)-4-((2-hydroxyethyl)sulfonamide)-6-(6-azaspiro[2.5]octan-6-yl)benzamide], in the test on HCC1954 cells, the IC50 is no more than 10 nM.
With `O=C(Nc1cccc2c1cc1n2CCOC1)c1ccc(NS(=O)(=O)CCO)cc1N1CCC2(CC1)CC2` [Example 235, N-(3,4-dihydro-1H-[1, 4]oxazino[4,3-a]indol-9-yl)-4-(2-hydroxyethylsulfonamido)-2-(6-azaspiro[2.5]octan-6-yl)benzamide], in the test on HCC1954 cells (Homo sapiens, HCC1954, 144 h), the IC50 was no more than 10 nM.

The IC50 is the midpoint of a concentration-inhibition curve. Read a high IC50 as a need for much substance.
